# Source: the NIST ThermoML archive (doi:10.1016/j.jct.2003.11.008)
# Numbers after ± are expanded uncertainties.
# Tests used:
# [1] = excess molar enthalpy (molar enthalpy of mixing); xn = mol fraction of the nth substance listed; conditions: 318.15 K, 101.3 kPa, Liquid
# [2] = xn = mol fraction of the nth substance listed; conditions: 318.15 K, 101.3 kPa, Liquid
smiles,measurement,setting,value
CCCCCCCCCCCCCCC [pentadecane] + CCOC(C)=O,excess molar enthalpy,[1]; x2 = 0.0901,0.134 ± 0.00239 kcal/mol
same,excess molar enthalpy,[1]; x2 = 0.1777,0.244 ± 0.00406 kcal/mol
same,excess molar enthalpy,[1]; x2 = 0.2582,0.339 ± 0.00574 kcal/mol
same,excess molar enthalpy,[1]; x2 = 0.3339,0.41 ± 0.00669 kcal/mol
same,excess molar enthalpy,[1]; x2 = 0.397,0.456 ± 0.00741 kcal/mol
same,excess molar enthalpy,[1]; x2 = 0.4609,0.489 ± 0.00789 kcal/mol
same,excess molar enthalpy,[1]; x2 = 0.5093,0.505 ± 0.00813 kcal/mol
same,excess molar enthalpy,[1]; x2 = 0.5557,0.511 ± 0.00837 kcal/mol
same,excess molar enthalpy,[1]; x2 = 0.6033,0.509 ± 0.00837 kcal/mol
same,excess molar enthalpy,[1]; x2 = 0.6563,0.495 ± 0.00813 kcal/mol
same,excess molar enthalpy,[1]; x2 = 0.6935,0.48 ± 0.00789 kcal/mol
same,excess molar enthalpy,[1]; x2 = 0.7292,0.457 ± 0.00741 kcal/mol
same,excess molar enthalpy,[1]; x2 = 0.7706,0.424 ± 0.00693 kcal/mol
same,excess molar enthalpy,[1]; x2 = 0.813,0.384 ± 0.00621 kcal/mol
same,excess molar enthalpy,[1]; x2 = 0.8538,0.332 ± 0.0055 kcal/mol
same,excess molar enthalpy,[1]; x2 = 0.8958,0.273 ± 0.00454 kcal/mol
same,excess molar enthalpy,[1]; x2 = 0.9283,0.21 ± 0.00359 kcal/mol
same,excess molar enthalpy,[1]; x2 = 0.9676,0.115 ± 0.0022 kcal/mol
same,excess molar volume,[2]; x2 = 0.0932,4.44e-07 ± 1.8e-08 m3/mol
same,excess molar volume,[2]; x2 = 0.1272,5.87e-07 ± 1.8e-08 m3/mol
same,excess molar volume,[2]; x2 = 0.2314,9.83e-07 ± 2e-08 m3/mol
same,excess molar volume,[2]; x2 = 0.3237,1.237e-06 ± 2.1e-08 m3/mol
same,excess molar volume,[2]; x2 = 0.4048,1.412e-06 ± 2.2e-08 m3/mol
same,excess molar volume,[2]; x2 = 0.465,1.483e-06 ± 2.2e-08 m3/mol
same,excess molar volume,[2]; x2 = 0.5427,1.54e-06 ± 2.3e-08 m3/mol
same,excess molar volume,[2]; x2 = 0.5987,1.536e-06 ± 2.3e-08 m3/mol
same,excess molar volume,[2]; x2 = 0.6373,1.512e-06 ± 2.3e-08 m3/mol
same,excess molar volume,[2]; x2 = 0.6957,1.432e-06 ± 2.2e-08 m3/mol
same,excess molar volume,[2]; x2 = 0.7643,1.293e-06 ± 2.2e-08 m3/mol
same,excess molar volume,[2]; x2 = 0.8273,1.104e-06 ± 2.1e-08 m3/mol
same,excess molar volume,[2]; x2 = 0.8926,8.05e-07 ± 1.9e-08 m3/mol
same,excess molar volume,[2]; x2 = 0.9375,5.48e-07 ± 1.8e-08 m3/mol
same,excess molar volume,[2]; x2 = 0.9714,2.73e-07 ± 1.7e-08 m3/mol
CCCCCCCCCCCCCCC [pentadecane] + COC(C)=O,excess molar enthalpy,[1]; x2 = 0.091,0.14 ± 0.00263 kcal/mol
same,excess molar enthalpy,[1]; x2 = 0.1824,0.272 ± 0.00454 kcal/mol
same,excess molar enthalpy,[1]; x2 = 0.2689,0.391 ± 0.00645 kcal/mol
same,excess molar enthalpy,[1]; x2 = 0.3572,0.488 ± 0.00789 kcal/mol
same,excess molar enthalpy,[1]; x2 = 0.4282,0.549 ± 0.00884 kcal/mol
same,excess molar enthalpy,[1]; x2 = 0.4946,0.586 ± 0.00956 kcal/mol
same,excess molar enthalpy,[1]; x2 = 0.5472,0.6 ± 0.0098 kcal/mol
same,excess molar enthalpy,[1]; x2 = 0.5908,0.601 ± 0.0098 kcal/mol
same,excess molar enthalpy,[1]; x2 = 0.6306,0.594 ± 0.00956 kcal/mol
same,excess molar enthalpy,[1]; x2 = 0.6559,0.584 ± 0.00932 kcal/mol
same,excess molar enthalpy,[1]; x2 = 0.6897,0.567 ± 0.00908 kcal/mol
same,excess molar enthalpy,[1]; x2 = 0.7229,0.544 ± 0.00884 kcal/mol
same,excess molar enthalpy,[1]; x2 = 0.7578,0.52 ± 0.00837 kcal/mol
same,excess molar enthalpy,[1]; x2 = 0.7947,0.484 ± 0.00789 kcal/mol
same,excess molar enthalpy,[1]; x2 = 0.8299,0.438 ± 0.00717 kcal/mol
same,excess molar enthalpy,[1]; x2 = 0.8675,0.385 ± 0.00621 kcal/mol
same,excess molar enthalpy,[1]; x2 = 0.905,0.316 ± 0.00526 kcal/mol
same,excess molar enthalpy,[1]; x2 = 0.94,0.238 ± 0.00406 kcal/mol
same,excess molar enthalpy,[1]; x2 = 0.9723,0.148 ± 0.00263 kcal/mol
same,excess molar volume,[2]; x2 = 0.1527,8.72e-07 ± 3.9e-08 m3/mol
same,excess molar volume,[2]; x2 = 0.2889,1.467e-06 ± 4.5e-08 m3/mol
same,excess molar volume,[2]; x2 = 0.3786,1.739e-06 ± 4.7e-08 m3/mol
same,excess molar volume,[2]; x2 = 0.4627,1.898e-06 ± 4.9e-08 m3/mol
same,excess molar volume,[2]; x2 = 0.5368,1.979e-06 ± 4.9e-08 m3/mol
same,excess molar volume,[2]; x2 = 0.5993,2.002e-06 ± 5e-08 m3/mol
same,excess molar volume,[2]; x2 = 0.6511,1.945e-06 ± 4.9e-08 m3/mol
same,excess molar volume,[2]; x2 = 0.6955,1.858e-06 ± 4.8e-08 m3/mol
same,excess molar volume,[2]; x2 = 0.7356,1.746e-06 ± 4.7e-08 m3/mol
same,excess molar volume,[2]; x2 = 0.777,1.644e-06 ± 4.6e-08 m3/mol
same,excess molar volume,[2]; x2 = 0.8099,1.512e-06 ± 4.5e-08 m3/mol
same,excess molar volume,[2]; x2 = 0.8412,1.386e-06 ± 4.4e-08 m3/mol
same,excess molar volume,[2]; x2 = 0.8595,1.259e-06 ± 4.3e-08 m3/mol
same,excess molar volume,[2]; x2 = 0.9126,9.19e-07 ± 4e-08 m3/mol
same,excess molar volume,[2]; x2 = 0.9511,5.84e-07 ± 3.6e-08 m3/mol
same,excess molar volume,[2]; x2 = 0.9777,2.73e-07 ± 3.4e-08 m3/mol
CCCCCOC(C)=O [pentyl ethanoate] + CCCCCCC,excess molar enthalpy,[1]; x1 = 0.0544,0.0566 ± 0.00127 kcal/mol
same,excess molar enthalpy,[1]; x1 = 0.1187,0.104 ± 0.00198 kcal/mol
same,excess molar enthalpy,[1]; x1 = 0.1801,0.141 ± 0.00263 kcal/mol
same,excess molar enthalpy,[1]; x1 = 0.2428,0.169 ± 0.00311 kcal/mol
same,excess molar enthalpy,[1]; x1 = 0.3049,0.192 ± 0.00335 kcal/mol
same,excess molar enthalpy,[1]; x1 = 0.3645,0.205 ± 0.00359 kcal/mol
same,excess molar enthalpy,[1]; x1 = 0.4174,0.211 ± 0.00359 kcal/mol
same,excess molar enthalpy,[1]; x1 = 0.468,0.212 ± 0.00359 kcal/mol
same,excess molar enthalpy,[1]; x1 = 0.472,0.212 ± 0.00359 kcal/mol
same,excess molar enthalpy,[1]; x1 = 0.5161,0.209 ± 0.00359 kcal/mol
same,excess molar enthalpy,[1]; x1 = 0.5646,0.203 ± 0.00359 kcal/mol
same,excess molar enthalpy,[1]; x1 = 0.6163,0.191 ± 0.00335 kcal/mol
same,excess molar enthalpy,[1]; x1 = 0.6696,0.176 ± 0.00311 kcal/mol
same,excess molar enthalpy,[1]; x1 = 0.7277,0.155 ± 0.00287 kcal/mol
same,excess molar enthalpy,[1]; x1 = 0.7889,0.128 ± 0.00234 kcal/mol
same,excess molar enthalpy,[1]; x1 = 0.8473,0.0966 ± 0.00186 kcal/mol
same,excess molar enthalpy,[1]; x1 = 0.9078,0.0615 ± 0.00134 kcal/mol
same,excess molar enthalpy,[1]; x1 = 0.9594,0.0278 ± 0.000813 kcal/mol
same,excess molar volume,[2]; x1 = 0.0546,1.29e-07 ± 1.6e-08 m3/mol
same,excess molar volume,[2]; x1 = 0.1048,2.14e-07 ± 1.6e-08 m3/mol
same,excess molar volume,[2]; x1 = 0.1515,2.65e-07 ± 1.7e-08 m3/mol
same,excess molar volume,[2]; x1 = 0.2014,3.07e-07 ± 1.7e-08 m3/mol
same,excess molar volume,[2]; x1 = 0.2488,3.45e-07 ± 1.7e-08 m3/mol
same,excess molar volume,[2]; x1 = 0.3009,3.81e-07 ± 1.7e-08 m3/mol
same,excess molar volume,[2]; x1 = 0.3474,3.99e-07 ± 1.7e-08 m3/mol
same,excess molar volume,[2]; x1 = 0.3999,4.11e-07 ± 1.7e-08 m3/mol
same,excess molar volume,[2]; x1 = 0.4426,4.09e-07 ± 1.7e-08 m3/mol
same,excess molar volume,[2]; x1 = 0.4977,3.97e-07 ± 1.7e-08 m3/mol
same,excess molar volume,[2]; x1 = 0.5503,3.72e-07 ± 1.7e-08 m3/mol
same,excess molar volume,[2]; x1 = 0.5881,3.55e-07 ± 1.7e-08 m3/mol
same,excess molar volume,[2]; x1 = 0.636,3.23e-07 ± 1.7e-08 m3/mol
same,excess molar volume,[2]; x1 = 0.7502,2.51e-07 ± 1.7e-08 m3/mol
same,excess molar volume,[2]; x1 = 0.8467,1.71e-07 ± 1.6e-08 m3/mol
same,excess molar volume,[2]; x1 = 0.9288,9.4e-08 ± 1.6e-08 m3/mol
